Source: US10399966B2, “Compounds for treatment of trypanosomes and neurological pathogens and uses thereof” (The University of North Carolina at Chapel Hill, priority 2016, dated 2019)
Read-outs that look alike come from different tables or passages of the source.

Key:
[1] = system: human hepatocytes HepG2; test: Cytotoxicity against HepG2 cells
[2] = system: Trypanosoma cruzi; test: Efficacy against T. cruzi in vitro; format: cell-based; details: Trypanosoma cruzi
[3] = system: human lymphocytes CRL-8155; test: Cytotoxicity against CRL-8155 cells; details: human lymphoblasts
Experimental: The selectivity of each compound for the parasite over each of the two cell lines was calculated.

[4] = system: T. b. brucei; test: In vitro antitrypanosomal activity against T. brucei (growth inhibition); format: cell-based, Trypanosoma brucei; details: Trypanosoma brucei
Experimental: Primary hits from the screen were further characterized using a dose-response assay format to determine the EC50. In parallel, the cytotoxicities of these compounds were determined against a proliferating human hepatoma cell line (Huh7). […] SI—CC50/EC50). The final set of confirmed T. brucei hits consisted of 1035 inhibitors. […] In vitro antitrypanosomal activities against T. b. rhodesiense (STIB9000) and cytotoxicities against L6 rat myoblast cells were measured following established protocols (Orhan et al., Mar. Drugs 8:47 (2010). […] All wells including negative controls contained a final of 0.4% DMSO. After incubation of the plates at 37° C. for 48 h, the parasite density was determined using the CellTiter-Glo reagent (Promega), a firefly luciferase assay system that measures the amount of cellular ATP present in plate wells.

[5] = Distribution between mouse plasma and brain (brain penetration, ip); format: in vivo; details: for concentration at 1 h: groups of 3 mice (compound 3: ± SEM of 6 mice)
Experimental: For distribution of compounds between mouse plasma and brain, mice (in groups of 3) were injected with test compounds (5 mg/kg ip) and sacrificed at the indicated times for collection of plasma and brain. Compound was dissolved in 0.4 mL of dosing solution (7% Tween 80, 3% ethanol, 5% DMSO, 0.9% saline) for ip injections. The brains were weighed and immediately frozen, then later homogenized in acetonitrile using a Dounce homogenizer. Prior to animal studies, recovery of test compound was carried out by adding a known amount to a mouse brain in the test extraction solvent and performing the homogenization. Compound recovery was determined by liquid chromatography/tandem mass spectrometry analysis relative to a standard compound amount. Blood was taken from the same mice in heparinized capillary tubes (Fisherbrand) for determination of compound concentration in plasma. The concentration of compound in the brain was obtained by dividing the moles of compound in the brain by the brain volume (obtained from the brain weight assuming 1 g is 1 mL) and correcting for the brain vasculature volume of 2.5% by weight.
Brain penetration studies (Table 14) were initially performed upon compounds 1, 2, and 3, but were expanded to include other compounds in order to explore the SAR of brain penetration. Groups of three mice were given single 5 mg/kg ip doses of the test compounds and were sacrificed 1 h post-dose.

[6] = Table 9, read-out: T. brucei EC50
[7] = Table 9, read-out: T. brucei EC90
[8] = Table 14, mice, single ip dose 5 mg/kg, one hour post-dose, ± SEM of 3 mice (compound 3: 6 mice)

SMILES	melting point [°C]	EC50 [4, 6] [nM]	EC90 [4, 7] [nM]	further results
O=C(Nc1ccc2sc(-c3ccc(F)c(F)c3)nc2c1)N1CC[C@@H](F)C1 [Compound 4, (R)-2-(3,4-Difluorophenyl)-5-(3-fluoro-N-pyrrolidylamido)benzothiazole]	–	326	491	EC50 ([1]; Homo sapiens, HepG2, read-out: HepG2 EC50): > 50000 nM; EC90 ([1]; read-out: HepG2 EC90, concentration required to inhibit growth by 90%, human hepatocytes): > 50000 nM; EC50 ([2]; Table 6, read-out: T. cruzi EC50): 491 nM; EC50 ([2]; Table 10, read-out: T.cruzi EC50): 968 nM; EC90 ([2]; Table 10, read-out: T.cruzi EC90): 1540 nM; EC50 ([3]; read-out: CRL-8155 EC50, concentration required to inhibit growth by 50%): > 50000 nM; EC90 ([3]; read-out: CRL-8155 EC90, concentration required to inhibit growth by 90%): > 50000 nM; EC50 ([4]; Table 6, read-out: T. brucei EC50): 326 nM; EC50 ([4]; Table 8, read-out: T. brucei EC50): 326 nM; EC50 ([4]; Table 11, read-out: T. b. brucei EC50): 326 nM; Brain/plasma ratio ([5]; Table 14, mice, single ip dose 5 mg/kg, one hour post-dose): 4.86 ± 1.055; [compound]Brain [5, 8]: 6.35 ± 2.257 µM; [compound]Plasma [5, 8]: 1.20 ± 0.270 µM; concentration at 1 h ([5]; mouse, in vivo, 5 mg/kg, Table 8, read-out: Average [compound] brain): 6.35 ± 3.91 µM; concentration at 1 h ([5]; mouse, in vivo, 5 mg/kg, Table 8, read-out: Average [compound] plasma): 1.2 ± 0.467 µM; Kp at 1 h ([5]; mouse, in vivo, 5 mg/kg, Table 8, groups of 3 mice, read-out: Average brain/plasma ratio): 4.86 ± 1.83
CN1CCN(C(=O)Nc2ccc3sc(-c4cccc(F)c4)nc3c2)CC1 [Compound 30, N-(2-(3-Fluorophenyl)benzothiazol-5-yl)-4-methylpiperazine-1-carboxamide]	224 to 226	3150	7550	–
N#CC1CCN(C(=O)Nc2ccc3sc(-c4ccc(F)c(F)c4)nc3c2)C1 (stereo not drawn) [Compound 36, 2-(3,4-Difluorophenyl)-5-(3-cyano-N-pyrrolidylamido)benzothiazole]	222 to 224	2850	4670	–
COC1CCN(C(=O)Nc2ccc3sc(-c4ccc(F)c(F)c4)nc3c2)C1 (stereo not drawn) [Compound 39, 2-(3,4-Difluorophenyl)-5-(3-methoxy-N-pyrrolidylamido)benzothiazole]	189 to 190.5	3050	4590	–
O=C(Nc1ccc2sc(-c3ccc(F)c(F)c3)nc2c1)N1CCC(F)(F)CC1 [Compound 40, 2-(3,4-Difluorophenyl)-5-(4,4-difluoro-N-piperidylamido)benzothiazole]	222 to 225	2980	4170	–
O=C(Nc1ccc2sc(-c3ccc(F)c(F)c3)nc2c1)N1C[C@@H](F)[C@@H](F)C1 [Compound 59, cis-2-(3,4-Difluorophenyl)-5-(3,4-difluoro-N-pyrrolidylamido)benzothiazole]	241 to 243	–	–	EC50 ([4]; Table 17, read-out: T. b. brucei EC50): 340 nM; EC90 ([4]; Table 17, read-out: T. b. brucei EC90): 517 nM

Further lines, with some results ahead:

melting point [°C]	SMILES	EC50 [4, 6] [nM]	EC90 [4, 7] [nM]	further results
177 to 179	O=C(Nc1ccc2sc(-c3ccccc3)nc2c1)N1CCSC1 [Compound 22]	1240	2380	–
199 to 200	O=C(Nc1ccc2sc(-c3ccccc3)nc2c1)N1CC=CCC1 [Compound 24, N-(2-Phenylbenzo[d]thiazol-5-yl)-3,6-dihydropyridine-1(2H)-carboxamide]	1120	1350	–
232.5 to 233.5	O=C(Nc1ccc2sc(-c3ccc(F)cc3)nc2c1)c1ccccc1 [Compound 25, 5-Benzamido-2-(4-fluorophenyl)benzothiazole]	1920	3000	–
221 to 222	O=C(Nc1ccc2sc(-c3cccc(F)c3)nc2c1)c1ccccc1 [Compound 28, 5-Benzamido-2-(3-fluorophenyl)benzothiazole]	1780	3620	–
211 to 213	O=C(Nc1ccc2sc(-c3ccc(F)c(F)c3)nc2c1)N1CCC(O)C1 (stereo not drawn) [Compound 38, 2-(3,4-Difluorophenyl)-5-(3-hydroxy-N-pyrrolidylamido)benzothiazole]	7680	13600	–
